Holding throughout (assay type): functional
The subject of assay [1] is Pseudomonas aeruginosa. Description: In vitro antimicrobial activity against Pseudomonas aeruginosa ATCC 27853 strain. Conditions: Pseudomonas aeruginosa, ATCC 27853; read-out: MIC.
For assay [2], the system named is Staphylococcus aureus. Description: In vitro antimicrobial activity against Staphylococcus aureus ATCC 29213 strain.
Assay [3] deals with Escherichia coli. Description: In vitro antimicrobial activity against Escherichia coli GC 1792 strain. The conditions noted are these: Escherichia coli; read-out: MIC.
Assay [4] relates to Staphylococcus aureus. Description: In vitro antimicrobial activity against Staphylococcus aureus GC 2220 strain. Conditions: Staphylococcus aureus; read-out: MIC.
The test system of the next assay is Enterococcus faecalis. Description: In vitro antimicrobial activity against Enterococcus faecalis GC 842 strain.
For assay [5], the system named is Mus musculus. As to the kind of experiment: Tested for oral activity against Staphylococcus aureus smith infection in mice after single subcutaneous dose(SSC). The conditions noted are these: Mus musculus; read-out: ED50.
Assay [6] has as its system Escherichia coli. As to the kind of experiment: In vitro antimicrobial activity against Escherichia coli ATCC 25922 strain.
In assay [7] the test system is Stenotrophomonas maltophilia. As to the kind of experiment: In vitro antimicrobial activity against Xanthomonas maltophilia GC 562 strain.
The species named for assay [8] is Mus musculus. As to the kind of experiment: animal or person. The conditions noted are these: Mus musculus, po; read-out: ED50.
Description: Tested for oral activity against Escherichia coli #311 infection in mice after single oral dose(SOD)
Assay [9] concerns Mus musculus. Description: Tested for oral activity against Staphylococcus aureus smith infection in mice after single oral dose(SOD). Conditions: Mus musculus, po; read-out: ED50.
Assay [10] has as its system Acinetobacter calcoaceticus. As to the kind of experiment: In vitro antimicrobial activity against Acinetobacter calcoaceticus GC 756 strain. The conditions noted are these: Acinetobacter calcoaceticus; read-out: MIC.
In assay [11] the test system is Pseudomonas aeruginosa. As to the kind of experiment: In vitro antimicrobial activity against Pseudomonas aeruginosa GC 1544 strain. Conditions: Pseudomonas aeruginosa; read-out: MIC.
Assay [12] is described as follows: Ratio of ED50 of single oral dose to ED50 of single subcutaneous dose against Staphylococcus aureus smith infection in mice.
The next assay concerns Enterobacter cloacae. As to the kind of experiment: In vitro antimicrobial activity against Enterobacter cloacae GC 2209 strain.
The species named for assay [13] is Mus musculus. As to the kind of experiment: animal or person. The conditions noted are these: Mus musculus; read-out: ED50.
Description: Tested for oral activity against Escherichia coli #311 infection in mice after single subcutaneous dose(SSC)
The subject of the next assay is Enterococcus faecium. Description: In vitro antimicrobial activity against Enterococcus faecium GC 1182 strain.
The test system of assay [14] is Escherichia coli. Description: In vitro antimicrobial activity against Escherichia coli GC 2205 strain.
A further assay concerns Morganella morganii. As to the kind of experiment: In vitro antimicrobial activity against Morganella morganii GC 2213 strain. Conditions: Morganella morganii; read-out: MIC.
For the next assay, the system named is Citrobacter freundii. As to the kind of experiment: In vitro antimicrobial activity against Citrobacter freundii GC 2211 strain. Conditions: Citrobacter freundii; read-out: MIC.
[15] abbreviates: Enterococcus faecalis, read-out: MIC.
[16] abbreviates: Enterococcus faecium, read-out: MIC.

Converted amounts (≈) assume the structure as drawn.

As for `C[C@@H](O)[C@H]1C(=O)N2C(C(=O)O)=C(S[C@@H]3CCO[C@@H]3CN)[C@H](C)[C@H]12`, the minimal inhibitory concentration (MIC) was 8 mg/L (≈ 23.4 µM) with Pseudomonas aeruginosa [1]; not above 0.06 mg/L against Staphylococcus aureus [2]; not above 0.06 mg/L in the assay with Escherichia coli [3]; 1 mg/L (≈ 2.92 µM) with Staphylococcus aureus [4]; 0.5 mg/L (≈ 1.46 µM) in the assay on Enterococcus faecalis; not above 0.06 mg/L in the assay on Escherichia coli [6]. Besides, the MIC in assay [7] is more than 128 mg/L; in assay [10] it was 2 mg/L (≈ 5.84 µM); in the assay on Pseudomonas aeruginosa [11] it was 16 mg/L (≈ 46.7 µM); against Enterobacter cloacae, not above 0.06 mg/L; with Enterococcus faecium, 64 mg/L (≈ 187 µM); against Escherichia coli [14], not above 0.06 mg/L. For the same compound, the MIC in the assay on Morganella morganii was 0.5 mg/L (≈ 1.46 µM); with Citrobacter freundii, not above 0.06 mg/L. Moreover, the ED50 is 0.04 mg/kg with Mus musculus [5], 3.8 mg/kg in the assay listed under Mus musculus [8], 0.88 mg/kg in the assay on Mus musculus [9] and 0.34 mg/kg in the assay filed under Mus musculus [13]. Also, in assay [12], the Ratio was determined as 22.
Consider `CC[C@@H](C)[C@@H](N)C(=O)NC[C@H]1OCC[C@H]1SC1=C(C(=O)O)N2C(=O)[C@H]([C@@H](C)O)C2[C@H]1C` (some centres undefined), for which the MIC with Pseudomonas aeruginosa [1] is 64 mg/L (≈ 140 µM); in the assay with Staphylococcus aureus [2], 0.25 mg/L (≈ 0.549 µM); with Escherichia coli [3], 0.25 mg/L (≈ 0.549 µM); with Staphylococcus aureus [4] it was 32 mg/L (≈ 70.2 µM); in the assay on Enterococcus faecalis (setting [15]), 2 mg/L (≈ 4.39 µM); in the assay on Escherichia coli [6], not above 0.06 mg/L. For the same compound, the MIC is more than 128 mg/L in assay [7]; 64 mg/L (≈ 140 µM) in assay [10]; 128 mg/L (≈ 281 µM) in the assay with Pseudomonas aeruginosa [11]; more than 128 mg/L with Enterococcus faecium (setting [16]); not above 0.06 mg/L against Escherichia coli [14]; 2 mg/L (≈ 4.39 µM) in the assay on Morganella morganii. Further, in the assay on Citrobacter freundii, the MIC came out at 4 mg/L (≈ 8.78 µM). For the same compound, the 50% effective dose (ED50) in the assay on Mus musculus [5] turned out to be 0.28 mg/kg; in the assay filed under Mus musculus [8], 0.58 mg/kg; with Mus musculus [9], 0.21 mg/kg; in the assay listed under Mus musculus [13], 1.1 mg/kg. Besides, in [12], the Ratio is on record as 0.75.
For the compound `C[C@@H](N)C(=O)NC[C@H]1OCC[C@H]1SC1=C(C(=O)O)N2C(=O)[C@H]([C@@H](C)O)C2[C@H]1C` (some centres undefined), the MIC with Pseudomonas aeruginosa [1] is 32 mg/L (≈ 77.4 µM); in the assay with Staphylococcus aureus [2], 0.12 mg/L (≈ 0.29 µM); in the assay on Escherichia coli [3], not above 0.06 mg/L; in the assay on Staphylococcus aureus [4] it was 8 mg/L (≈ 19.3 µM); in the assay with Enterococcus faecalis (setting [15]), 4 mg/L (≈ 9.67 µM); in the assay with Escherichia coli [6] it was not above 0.06 mg/L. Also, the MIC in assay [7] is more than 128 mg/L; in assay [10], 16 mg/L (≈ 38.7 µM); in the assay with Pseudomonas aeruginosa [11], 64 mg/L (≈ 155 µM); against Enterobacter cloacae, 0.25 mg/L (≈ 0.605 µM); with Enterococcus faecium (setting [16]), more than 128 mg/L; in the assay with Escherichia coli [14], not above 0.06 mg/L. The MIC in the assay on Morganella morganii and with Citrobacter freundii was 1 mg/L (≈ 2.42 µM) each time. In addition, the ED50 in the assay with Mus musculus [5] was 0.04 mg/kg; in the assay listed under Mus musculus [8] it was 0.55 mg/kg; with Mus musculus [9], 0.09 mg/kg; in the assay listed under Mus musculus [13], 0.28 mg/kg. Also, the Ratio in assay [12] is recorded as 2.2.
As to `C[C@H]1C(S[C@@H]2CCO[C@@H]2CNC(=O)CN)=C(C(=O)O)N2C(=O)[C@H]([C@@H](C)O)C12` (some centres undefined), the MIC was 8 mg/L (≈ 20 µM) in the assay on Pseudomonas aeruginosa [1]; 0.12 mg/L (≈ 0.3 µM) in the assay with Staphylococcus aureus [2]; less than 0.06 mg/L with Escherichia coli [3]; 8 mg/L (≈ 20 µM) with Staphylococcus aureus [4]; 2 mg/L (≈ 5.01 µM) with Enterococcus faecalis (setting [15]); less than 0.06 mg/L in the assay on Escherichia coli [6]. Further, the MIC in assay [7] is more than 128 mg/L; in [10], 8 mg/L (≈ 20 µM); with Pseudomonas aeruginosa [11], 64 mg/L (≈ 160 µM); against Enterobacter cloacae, less than 0.06 mg/L; in the assay on Enterococcus faecium (setting [16]), more than 128 mg/L; in the assay on Escherichia coli [14], less than 0.06 mg/L. Also, the MIC with Morganella morganii and with Citrobacter freundii was 0.5 mg/L (≈ 1.25 µM) throughout. Further, the ED50 with Mus musculus [5] stood at 0.15 mg/kg; in the assay listed under Mus musculus [8] it was 1.4 mg/kg; in the assay on Mus musculus [9] it was 0.41 mg/kg; in the assay filed under Mus musculus [13], 0.56 mg/kg. For the same compound, the Ratio in assay [12] is listed as 2.7.
Consider `C[C@H]1C(S[C@@H]2COC[C@@H]2CN)=C(C(=O)O)N2C(=O)[C@H]([C@@H](C)O)C12` (some centres undefined), for which the MIC came out at 16 mg/L (≈ 46.7 µM) in the assay on Pseudomonas aeruginosa [1]; 0.12 mg/L (≈ 0.35 µM) against Staphylococcus aureus [2]; 0.12 mg/L (≈ 0.35 µM) in the assay with Escherichia coli [3]; 16 mg/L (≈ 46.7 µM) in the assay with Staphylococcus aureus [4]; 8 mg/L (≈ 23.4 µM) in the assay with Enterococcus faecalis (setting [15]); 0.12 mg/L (≈ 0.35 µM) in the assay with Escherichia coli [6]. Moreover, the MIC is more than 128 mg/L in assay [7]; 16 mg/L (≈ 46.7 µM) in assay [10]; 32 mg/L (≈ 93.5 µM) in the assay on Pseudomonas aeruginosa [11]; 0.12 mg/L (≈ 0.35 µM) in the assay with Enterobacter cloacae; more than 128 mg/L in the assay with Enterococcus faecium (setting [16]); 0.12 mg/L (≈ 0.35 µM) against Escherichia coli [14]. Also, the MIC in the assay on Morganella morganii was 2 mg/L (≈ 5.84 µM); in the assay on Citrobacter freundii, 0.5 mg/L (≈ 1.46 µM).

The record behind these values is ChEMBL document CHEMBL1130465, “Peptidic prodrugs of novel aminomethyl-THF 1-methylcarbapenems” (1997).
